Drawing on patent publication US20130184273A1, “BICYCLIC PYRIMIDINES” (Bayer Intellectual Property GmbH, priority 2010, published 2013), this text covers IC50 for three molecules.

Assay [1] relates to phospho-AKT at S473 in KPL4 breast tumour cell line. In words: Cellular p-AKT1/2/3-S473 assay. Format: cell-based. Conditions: KPL4 cells, treated with compounds for 2 hours; read-out: pAKT-S743 median IC50. As for the experimental part:
The molecular mechanism of action was investigated in a set of experiments to assess the inhibition of the PI3K-AKT-mTOR pathway in responsive cell lines such as KPL4 breast tumour cell line (PIK3CAH1047R, HER20/E and hormone independent). The phospho-substrates of PI3K-AKT-mTOR axis were used as the read-outs to reflect pathway inhibition. Cells were seeded at 60-80% confluency per well in 96-well cell culture plates. After overnight incubation at 37° C. 5% CO2, cells were treated with compounds and vehicle at 37° C. for 2 hours. Thereafter, cells were lysed in 150 μl lysis buffer and the levels of phospho-AKT at T308 and S473 and p-4E-BP1 at T70 sites were determined with the corresponding AlphaScreen® SureFire® assay kits (Perkin Elmer: 4E-BP1 Assay Kit Cat # TRG4E2S10K; Akt 1/2/3 p-Ser 473 #TGRA4S500 and Akt 1/2/3 p-Thr 308 #TGRA3S500 as well as IgG detection Kit #6760617M) as described in the manuals. All measurements where at least done in duplicates and confirmed by independent repetition.
Alternatively pAKT-S473 was measured using the “Akt Duplex” of the MULTI-SPOT® Assay System (Fa. Meso Scale Discovery, Cat#N41100B-1) following manufacturers instructions. Each assay used 20 μg of protein extract and measured total AKT and p-AKT content simultaneously in one well. All measurements where at least done in duplicates and confirmed by independent repetition. Values for P-AKT are expressed as percentage of P-AKT level compared to total-AKT content of the extracts.

In assay [2] the test system is KPL-4 breast cancer cell line. In words: Tumor cell proliferation assay (CellTiter-Glo). Conditions: KPL4, 72 h drug exposure. Format: cell-based. As for the experimental part: Compounds were tested in a cell-based assay that measures the capacity of the compounds to inhibit tumour cell proliferation following a 72 h drug exposure. Cell viability is determined using CellTiter-Glow® (CTG, Promega, cat #G7571/2/3). The CellTiter-Glo® Luminescent Cell Viability Assay is a homogeneous method to determine the number of viable cells in culture. Detection is based on using the luciferase reaction to measure the amount of ATP from viable cells. The amount of ATP in cells correlates with cell viability. Within minutes after a loss of membrane integrity, cells lose the ability to synthesize ATP, and endogenous ATPases destroy any remaining ATP; thus the levels of ATP fall precipitously.
Cells were plated at 3000-5000 cells/well (depending on the cell lines) in 90 μL growth medium on MTPs (Corning; #3603, black plate, clear flat bottom). For each cell line assayed, cells were plated onto a separate plate for determination of […] at t=0 hour and t=72 hour time points. Following overnight incubation at 37° C., chemiluminescence values for the t=0 samples were determined after adding 10 μl medium and 100 μl CTG solution according to manufacture protocol. Plates for the t=72 hour time points were treated with compounds diluted into growth medium at ten times final concentration added in 10 μL to the cell culture plate. Cells were then incubated for 72 hours at 37° C. Chemiluminescence values for the t=72 hour samples were determined. […] Experiments were controlled using a reference compound as standard.
Background: Cellular ATP, detected with luciferase, serves as a proxy for viable cell number.

In assay [3] the target is T1, His-tagged human recombinant kinase full-length Akt2 (Homo sapiens, UniProt P31751).
T1 construct: His-tagged human recombinant kinase full-length Akt2; His; purchased Invitrogen PV 3975; host or cells: insect cells
In words: Akt2 kinase assay (TR-FRET). Type of assay: biochemical. Conditions: 10 μM ATP, 60 min at 22° C., read-out: Akt2, median IC50. The text has this: Akt2 inhibitory activity of compounds of the present invention was quantified employing the Akt2 TR-FRET assay as described in the following paragraphs.
His-tagged human recombinant kinase full-length Akt2 expressed in insect cells and activated by PDK1 was purchased form Invitrogen (part number PV 3975). As substrate for the kinase reaction the biotinylated peptide biotin-Ahx-KKLNRTLSFAEPG (C-terminus in amide form) was used which can be purchased e.g. from the company Biosynthan GmbH (Berlin-Buch, Germany).
(§1) For the assay 50 nl of a 100 fold concentrated solution of the test compound in DMSO was pipetted into a black low volume 384well microtiter plate (Greiner Bio-One, Frickenhausen, Germany), 2 μl of a solution of Akt2 in assay buffer [50 mM TRIS/HCl pH 7.5, 5 mM MgCl2, 1 mM dithiothreitol, 0.02% (v/v) Triton X-100 (Sigma)] were added and the mixture was incubated for 15 min at 22° C. to allow pre-binding of the test compounds to the enzyme before the start of the kinase reaction. Then the kinase reaction was started by the addition of 3 μl of a solution of adenosine-tri-phosphate (ATP, 16.7 μM=>final conc. in the 5 μl assay volume is 10 μM) and substrate (1.67 μM=>final conc. in the 5 μl assay volume is 1 μM) in assay buffer and the resulting mixture was incubated for a reaction time of 60 min at 22° C. The concentration of Akt2 in the assay was adjusted depending of the activity of the enzyme lot and was chosen appropriate to have the assay in the linear range, typical enzyme concentrations were in the range of about 0.2 ng/μl (final conc. in the 5 μl assay volume).
The reaction was stopped by the addition of 5 μl of a solution of HTRF detection reagents (200 nM streptavidine-XL665 [Cisbio] and 1.5 nM anti-phosho-Serine antibody [Millipore, cat. #35-001] and 0.75 nM LANCE Eu-W 1024 labeled anti-mouse IgG antibody [Perkin Elmer]) in an aqueous EDTA-solution (100 mM EDTA, 0.1% (w/v) bovine serum albumin in 50 mM HEPES/NaOH pH 7.5).
The resulting mixture was incubated 1 h at 22° C. to allow the binding of the biotinylated phosphorylated peptide to the streptavidine-XL665 and the antibodies.
Subsequently the amount of phosphorylated substrate was evaluated by measurement of the resonance energy transfer from the anti-mouse-IgG-Eu-Chelate to the streptavidine-XL665. Therefore, the fluorescence emissions at 620 nm and 665 nm after excitation at 350 nm was measured in a TR-FRET reader, e.g. a Rubystar (BMG Labtechnologies, Offenburg, Germany) or a Viewlux (Perkin-Elmer). The ratio of the emissions at 665 nm and at […] was taken as the measure for the amount of phosphorylated substrate. The data were normalised (enzyme reaction without inhibitor=0% inhibition, all other assay components but no enzyme=100% inhibition).
(In general: In TR-FRET formats the signal depends on donor and acceptor labels being close together.)

Assay [4] concerns the target T2, His-tagged human recombinant kinase full-length Akt1 (Homo sapiens, UniProt P31749).
T2 construct: His-tagged human recombinant kinase full-length Akt1; His; purchased Invitrogen PV 3599; host or cells: insect cells
Kind of assay: Akt1 kinase assay (TR-FRET). Conditions: 10 μM ATP, 60 min at 22° C., read-out: Akt1, median IC50. Type of assay: biochemical.
Source text: Akt1 inhibitory activity of compounds of the present invention was quantified employing the Akt1 TR-FRET assay as described in the following paragraphs.
His-tagged human recombinant kinase full-length Akt1 expressed in insect cells was purchased form Invitrogen (part number PV 3599). As substrate for the kinase reaction the biotinylated peptide biotin-Ahx-KKLNRTLSFAEPG (C-terminus in amide form) was used which can be purchased e.g. from the company Biosynthan GmbH (Berlin-Buch, Germany).
as §1, with “Akt1” for “Akt2”, “0.05” for “0.2”
The reaction was stopped by the addition of 5 μl of a solution of HTRF detection reagents (200 nM streptavidine-XL665 [Cisbio] and 1.5 nM anti-phosho-Serine antibody [Millipore, cat. #35-001] and 0.75 nM LANCE Eu-W 1024 labeled anti-mouse IgG antibody [Perkin Elmer]) in an aqueous EDTA-solution (100 mM EDTA, 0.1% (w/v) bovine serum albumin in 50 mM HEPES/NaOH pH 7.5). The resulting mixture was incubated 1 h at 22° C. to allow the binding of the biotinylated phosphorylated peptide to the streptavidine-XL665 and the antibodies. Subsequently the amount of phosphorylated substrate was evaluated by measurement of the resonance energy transfer from the anti-mouse-IgG-Eu-Chelate to the streptavidine-XL665. Therefore, the fluorescence emissions at 620 nm and 665 nm after excitation at 350 nm was measured in a HTRF reader, e.g. a Rubystar (BMG Labtechnologies, Offenburg, Germany) or a Viewlux (Perkin-Elmer). The ratio of the emissions at 665 nm and at […] was taken as the measure for the amount of phosphorylated substrate. The data were normalised (enzyme reaction without inhibitor=0% inhibition, all other assay components but no enzyme=100% inhibition).

Usually IC50 stands for the concentration needed to halve the response being measured.

T1 sequence (P31751 whole entry): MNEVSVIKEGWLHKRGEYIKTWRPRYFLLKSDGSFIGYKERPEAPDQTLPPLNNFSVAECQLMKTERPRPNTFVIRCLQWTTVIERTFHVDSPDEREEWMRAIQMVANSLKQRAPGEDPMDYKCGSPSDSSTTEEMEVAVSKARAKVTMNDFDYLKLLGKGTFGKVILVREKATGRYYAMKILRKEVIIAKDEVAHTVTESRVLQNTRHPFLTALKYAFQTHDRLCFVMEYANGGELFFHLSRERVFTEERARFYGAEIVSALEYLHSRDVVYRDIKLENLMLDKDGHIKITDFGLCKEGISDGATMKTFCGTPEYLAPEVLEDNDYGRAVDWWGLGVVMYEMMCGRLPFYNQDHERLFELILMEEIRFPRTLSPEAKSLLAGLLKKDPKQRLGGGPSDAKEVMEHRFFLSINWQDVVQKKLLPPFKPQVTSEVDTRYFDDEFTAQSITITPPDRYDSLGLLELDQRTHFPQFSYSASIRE
T2 sequence (P31749 whole entry): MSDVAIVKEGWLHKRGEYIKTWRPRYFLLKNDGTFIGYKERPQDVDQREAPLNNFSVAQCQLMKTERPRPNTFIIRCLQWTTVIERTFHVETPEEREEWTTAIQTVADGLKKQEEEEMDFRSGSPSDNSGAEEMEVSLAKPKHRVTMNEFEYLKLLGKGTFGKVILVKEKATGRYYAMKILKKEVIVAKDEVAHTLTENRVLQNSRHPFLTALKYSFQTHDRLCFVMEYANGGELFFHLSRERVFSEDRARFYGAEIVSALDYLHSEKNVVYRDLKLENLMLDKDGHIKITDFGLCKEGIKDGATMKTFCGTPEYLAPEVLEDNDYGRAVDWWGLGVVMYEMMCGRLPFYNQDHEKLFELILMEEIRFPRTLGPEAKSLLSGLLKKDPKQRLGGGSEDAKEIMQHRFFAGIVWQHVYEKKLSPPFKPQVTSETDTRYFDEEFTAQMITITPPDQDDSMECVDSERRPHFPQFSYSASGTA

For the molecule `NC1(c2ccc(-c3nc4ncc(-c5ccc(F)c(CO)c5)n4cc3-c3ccccc3)cc2)CCC1` [Example 6-1, (5-{7-[4-(1-Amino-cyclobutyl)-phenyl]-6-phenyl-imidazo[1,2-a]pyrimidin-3-yl}-2-fluoro-phenyl)-methanol], the IC50 in assay [1] is 0.54 µM; in assay [2] it was 2.1 µM; in assay [3] it was 0.629 µM.
As to `Cc1nc2nc(-c3ccc(C4(N)CCC4)cc3)c(-c3ccccc3)c(NC3CCC3)n2n1` [Example 5-8, {5-[4-(1-amino-cyclobutyl)-phenyl]-2-methyl-6-phenyl-[1,2,4]triazolo[1,5-a]pyrimidin-7-yl}-cyclobutyl-amine], the IC50 in assay [4] worked out at 0.731 µM; in assay [2], 3.64 µM; in assay [3], 0.303 µM.
In the same order, the values of `CC(C)Nc1nc2nc(-c3ccc(C4(N)CCC4)cc3)c(-c3ccccc3)cn2n1` [Example 5-5, {5-[4-(1-amino-cyclobutyl)-phenyl]-6-phenyl-[1,2,4]triazolo[1,5-a]pyrimidin-2-yl}-isopropyl-amine] are 1.47 µM, 2.2 µM and 0.234 µM.
